Assay results as given in patent US20040266864A1, “Methods for treating depression and other CNS disorders using enantiomerically enriched desmethyl-and didesmethyl-metabolites of citalopram” (Sepracor Inc., priority 2001, published 2004).

Tests used:
NE uptake = molecular target: T1, NE uptake (Rattus norvegicus, UniProt Q63380); assay: Inhibition of norepinephrine reuptake into rat brain synaptosomes; format: biochemical; settings: functional monoamine uptake
T1 construct: norepinephrine (NE) and dopamine into similarly prepared synaptosomes; from tissue; host or cells: rat brain synaptosomes
T1 sequence (Q63380 1-617): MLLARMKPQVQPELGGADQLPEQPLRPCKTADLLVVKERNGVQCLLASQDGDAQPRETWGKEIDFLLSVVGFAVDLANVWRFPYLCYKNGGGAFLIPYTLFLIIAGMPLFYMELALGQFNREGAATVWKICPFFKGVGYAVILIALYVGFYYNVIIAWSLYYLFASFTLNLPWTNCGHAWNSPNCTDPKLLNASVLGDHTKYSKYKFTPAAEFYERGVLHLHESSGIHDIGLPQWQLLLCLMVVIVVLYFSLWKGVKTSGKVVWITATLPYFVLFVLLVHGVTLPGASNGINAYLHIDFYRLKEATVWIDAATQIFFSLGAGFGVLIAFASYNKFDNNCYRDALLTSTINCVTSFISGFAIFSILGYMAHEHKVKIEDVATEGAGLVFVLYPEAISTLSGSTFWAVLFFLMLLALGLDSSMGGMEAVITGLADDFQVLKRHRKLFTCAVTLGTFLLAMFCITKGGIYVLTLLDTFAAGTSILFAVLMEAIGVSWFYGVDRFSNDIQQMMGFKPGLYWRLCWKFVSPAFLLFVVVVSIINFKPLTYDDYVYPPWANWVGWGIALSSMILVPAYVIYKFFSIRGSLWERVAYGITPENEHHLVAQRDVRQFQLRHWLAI

cytochrome P450 enzymes = settings: P450 4A, 2C19, 2D6, 1A2, 2C9, 2E1; cited from earlier work
[1] = test system: receptors for various neurotransmitters, enzymes, other reuptake sites; settings: acetylcholine, histamine, norepinephrine, dopamine receptors, monoamine oxidase; cited from earlier work
5-HT Transporter [2] = molecular target: 5-HT Transporter (Rattus norvegicus, UniProt P31652); assay: Rat 5-HT transporter IC50/Ki; format: binding
5-HT Transporter (Rattus norvegicus, UniProt P31652), sequence (P31652 whole entry): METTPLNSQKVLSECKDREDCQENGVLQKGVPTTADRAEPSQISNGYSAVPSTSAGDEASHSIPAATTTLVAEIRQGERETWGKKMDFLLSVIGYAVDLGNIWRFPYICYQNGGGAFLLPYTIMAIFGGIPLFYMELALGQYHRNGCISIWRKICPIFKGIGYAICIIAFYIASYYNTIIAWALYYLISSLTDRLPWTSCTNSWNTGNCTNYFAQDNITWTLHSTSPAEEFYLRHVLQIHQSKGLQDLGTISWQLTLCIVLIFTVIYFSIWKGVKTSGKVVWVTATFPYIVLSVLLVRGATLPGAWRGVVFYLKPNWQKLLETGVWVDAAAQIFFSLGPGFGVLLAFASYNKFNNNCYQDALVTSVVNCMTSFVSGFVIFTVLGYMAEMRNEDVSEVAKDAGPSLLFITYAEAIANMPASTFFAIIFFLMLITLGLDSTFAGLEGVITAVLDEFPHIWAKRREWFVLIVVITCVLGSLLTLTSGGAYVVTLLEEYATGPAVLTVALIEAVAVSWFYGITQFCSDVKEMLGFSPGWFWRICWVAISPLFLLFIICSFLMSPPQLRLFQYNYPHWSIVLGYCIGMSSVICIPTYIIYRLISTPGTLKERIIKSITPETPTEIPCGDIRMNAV

NE Transporter = NE Transporter (Homo sapiens, UniProt P23975); assay: Human NE transporter IC50/Ki; format: binding
NE Transporter, sequence (P23975 whole entry): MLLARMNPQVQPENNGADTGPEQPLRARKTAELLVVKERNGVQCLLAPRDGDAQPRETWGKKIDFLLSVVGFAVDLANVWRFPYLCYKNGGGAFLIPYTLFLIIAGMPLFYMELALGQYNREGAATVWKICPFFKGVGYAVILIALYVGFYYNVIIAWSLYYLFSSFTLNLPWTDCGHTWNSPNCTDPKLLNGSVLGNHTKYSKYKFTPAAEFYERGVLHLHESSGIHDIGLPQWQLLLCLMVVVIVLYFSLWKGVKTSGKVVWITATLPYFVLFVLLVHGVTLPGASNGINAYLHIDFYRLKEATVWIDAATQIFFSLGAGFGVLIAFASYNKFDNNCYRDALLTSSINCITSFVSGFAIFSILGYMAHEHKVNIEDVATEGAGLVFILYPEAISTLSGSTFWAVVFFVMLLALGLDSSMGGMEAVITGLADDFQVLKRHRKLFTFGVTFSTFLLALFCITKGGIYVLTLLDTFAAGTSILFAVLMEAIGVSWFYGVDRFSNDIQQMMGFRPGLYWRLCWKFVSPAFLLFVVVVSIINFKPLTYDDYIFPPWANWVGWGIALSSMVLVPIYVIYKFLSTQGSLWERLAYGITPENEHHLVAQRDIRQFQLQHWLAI

5-HT uptake = molecular target: T2, 5-HT uptake (Rattus norvegicus, UniProt P31652); assay: Inhibition of reuptake of radiolabeled serotonin into rat brain synaptosomes; format: biochemical; settings: functional monoamine uptake
T2 construct: synaptosomes prepared from various regions of rat brains; from tissue; host or cells: rat brain synaptosomes
T2 sequence (P31652 whole entry): as the sequence (P31652 whole entry) above

DA Transporter = DA Transporter (Homo sapiens, UniProt Q01959); format: binding
DA Transporter, sequence (Q01959 whole entry): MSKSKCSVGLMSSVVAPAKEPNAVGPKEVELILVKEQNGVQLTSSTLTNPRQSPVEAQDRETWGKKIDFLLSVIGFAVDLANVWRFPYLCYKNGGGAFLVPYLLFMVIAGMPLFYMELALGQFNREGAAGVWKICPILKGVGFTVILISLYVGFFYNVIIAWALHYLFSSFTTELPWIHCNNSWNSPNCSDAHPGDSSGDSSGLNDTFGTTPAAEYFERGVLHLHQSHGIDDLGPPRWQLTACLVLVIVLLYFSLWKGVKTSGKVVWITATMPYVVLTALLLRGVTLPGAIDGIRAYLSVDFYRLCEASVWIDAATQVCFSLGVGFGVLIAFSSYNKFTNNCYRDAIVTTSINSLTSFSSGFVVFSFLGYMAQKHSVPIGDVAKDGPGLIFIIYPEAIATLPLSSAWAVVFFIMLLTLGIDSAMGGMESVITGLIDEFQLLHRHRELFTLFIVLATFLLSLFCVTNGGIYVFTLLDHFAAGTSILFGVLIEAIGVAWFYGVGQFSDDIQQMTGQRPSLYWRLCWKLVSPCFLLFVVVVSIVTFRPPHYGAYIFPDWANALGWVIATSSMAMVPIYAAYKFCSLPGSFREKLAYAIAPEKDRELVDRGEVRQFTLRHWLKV

DA uptake = molecular target: T3, DA uptake (Rattus norvegicus, UniProt P23977); assay: Inhibition of dopamine reuptake into rat brain synaptosomes; format: biochemical; settings: functional monoamine uptake
T3 construct: norepinephrine (NE) and dopamine into similarly prepared synaptosomes; from tissue; host or cells: rat brain synaptosomes
T3 sequence (P23977 whole entry): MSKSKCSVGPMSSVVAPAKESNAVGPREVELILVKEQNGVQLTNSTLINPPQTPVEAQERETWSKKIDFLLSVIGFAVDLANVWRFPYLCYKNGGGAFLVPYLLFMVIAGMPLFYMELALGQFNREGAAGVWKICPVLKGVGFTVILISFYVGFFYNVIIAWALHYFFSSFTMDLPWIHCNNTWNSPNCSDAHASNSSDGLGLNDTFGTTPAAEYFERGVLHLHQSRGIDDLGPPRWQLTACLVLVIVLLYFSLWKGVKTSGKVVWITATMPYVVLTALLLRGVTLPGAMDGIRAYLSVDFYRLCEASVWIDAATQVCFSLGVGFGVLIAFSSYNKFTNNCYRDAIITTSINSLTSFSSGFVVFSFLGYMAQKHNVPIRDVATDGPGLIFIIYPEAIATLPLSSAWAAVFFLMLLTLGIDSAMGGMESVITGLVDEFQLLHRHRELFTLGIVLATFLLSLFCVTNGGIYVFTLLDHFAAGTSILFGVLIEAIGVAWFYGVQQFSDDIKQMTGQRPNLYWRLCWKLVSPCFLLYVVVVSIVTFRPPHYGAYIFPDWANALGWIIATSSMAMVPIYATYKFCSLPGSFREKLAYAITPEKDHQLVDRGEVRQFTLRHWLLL

5-HT Transporter [3] = molecular target: 5-HT Transporter (Homo sapiens, UniProt P31645); format: binding
5-HT Transporter (Homo sapiens, UniProt P31645), sequence (P31645 whole entry): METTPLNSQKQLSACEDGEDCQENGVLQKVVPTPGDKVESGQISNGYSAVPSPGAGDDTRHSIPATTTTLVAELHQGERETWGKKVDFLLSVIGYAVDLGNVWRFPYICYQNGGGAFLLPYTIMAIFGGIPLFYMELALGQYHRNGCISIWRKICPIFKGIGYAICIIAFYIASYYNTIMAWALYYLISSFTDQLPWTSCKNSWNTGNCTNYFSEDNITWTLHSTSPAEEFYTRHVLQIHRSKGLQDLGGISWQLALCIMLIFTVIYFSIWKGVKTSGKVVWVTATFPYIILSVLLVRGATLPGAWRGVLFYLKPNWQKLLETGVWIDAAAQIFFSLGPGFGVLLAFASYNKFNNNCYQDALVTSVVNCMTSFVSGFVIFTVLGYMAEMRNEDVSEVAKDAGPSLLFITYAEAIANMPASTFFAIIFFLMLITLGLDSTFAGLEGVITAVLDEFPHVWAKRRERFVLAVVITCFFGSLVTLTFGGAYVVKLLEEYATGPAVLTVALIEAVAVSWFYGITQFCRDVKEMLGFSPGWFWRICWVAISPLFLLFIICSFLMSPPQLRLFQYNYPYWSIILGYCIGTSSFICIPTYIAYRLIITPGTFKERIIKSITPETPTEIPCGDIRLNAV

[4] = Sanchez and Hyttel 1999; cited from earlier work

Row | Compound | IC50 (NE uptake) [µM] | inhibition of cytochrome P450 enzyme activity (not by more than) (cytochrome P450 enzymes) | affinity for neurotransmitter receptors, enzymes and other reuptake sites [1] | IC50 (5-HT Transporter [2]) [nM] | Ki (5-HT Transporter [2]) [nM] | IC50 (NE Transporter) [µM] | Ki (NE Transporter) [µM] | IC50 (5-HT uptake) [nM] | IC50 (DA Transporter) [µM] | Ki (DA Transporter) [µM] | IC50 (DA uptake) [µM] | IC50 (5-HT Transporter [3]) [nM] | Ki (5-HT Transporter [3]) [nM] | half-lives compared to citalopram [4]
1 | CN(C)CCCC1(c2ccc(F)cc2)OCc2cc(C#N)ccc21 (racemic) [Racemic Citalopram, (±)-1-(3-dimethylaminopropyl)-1-(4-fluorophenyl)-1,3-dihydroisobenzofuran-5-carbonitrile, reference compound] | 4.9 | mild degree | negligible affinity |  |  |  |  |  |  |  |  |  |  | 
2 | CNCCCC1(c2ccc(F)cc2)OCc2cc(C#N)ccc21 (racemic) [desmethylcitalopram, (±)-1-(3-methylaminopropyl)-1-(4-fluorophenyl)-1,3-dihydroisobenzofuran-5-carbonitrile] |  | mild degree |  |  |  |  |  |  |  |  |  |  |  | 
3 | CNCCCC1(c2ccc(F)cc2)OCc2cc(C#N)ccc21 (single isomer, unassigned; (+)) [(+)-Desmethylcitalopram] | 4.1 |  |  | 1.3 | 0.27 | 10.3 | 9.57 | 5.8 | 27.7 | 12.7 | 7.6 |  |  | 
4 | N#Cc1ccc2c(c1)COC2(CCCN)c1ccc(F)cc1 (single isomer, unassigned; (+)) [(+)-Didesmethylcitalopram] | 3.3 |  |  | 19 | 3.9 | 24.2 | 22.4 | 180 | 54.7 | 25 | 11 | 219 | 90 | measurably longer
5 | N#Cc1ccc2c(c1)COC2(CCCN)c1ccc(F)cc1 (single isomer, unassigned; (-)) [(−)-Didesmethylcitalopram] | 1.3 |  |  | 27 | 5.5 | 5.52 | 5.12 | 130 | 38.9 | 17.8 | 2.7 | 14 | 5.8 | measurably longer
6 | (−)-Desmethylcitalopram | 1.7 |  |  | 11 | 2.3 | 0.815 | 0.756 | 110 | 37.6 | 17.1 | 9.4 | 42 | 17 | measurably longer
